Results on one compound are retold here after US20060046966A1, “Antipicornaviral compounds and compositions, their pharmaceutical uses, and materials for their synthesis” (Agouron Pharmaceuticals, Inc., priority 1998, published 2006).

The test system of one assay is HRV (89). Kind of assay: Antirhinoviral H1-HeLa cell culture assay, HRV serotype 89. The assay is classed as cell-based, human rhinovirus. Conditions: Human rhinovirus sp., H1-HeLa cells, XTT. The method in brief: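 XTT cell-protection assay in H1-HeLa cells infected with rhinovirus or mock-infected, then incubated with compound for two days; formazan was read at 450/650 nm. EC50 is the concentration restoring infected-cell formazan to 50% of compound-free mock-infected cells; CC50 is the concentration halving formazan in mock-infected cells.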
A general note: Tetrazolium assays rely on reduction of a dye to a coloured formazan, in cell work by metabolically active cells.

The subject of the next assay is HRV (13). As to the kind of experiment: Antirhinoviral H1-HeLa cell culture assay, HRV serotype 13. The assay is classed as cell-based, human rhinovirus. Conditions: Human rhinovirus sp., H1-HeLa, H1-HeLa cells, XTT. As to the method:
(§1) In this cell protection assay, the ability of compounds to protect cells against HRV infection was measured by the XTT dye reduction method, which is described in Weislow et al., J. Natl. Cancer Inst. 1989, vol. 81, 577-586.
(§2) H1-HeLa cells were infected with HRV-14 at a multiplicity of infection (m.o.i.) of 0.13 (virus particles/cell) or mock-infected with medium only. Infected or mock-infected cells were resuspended at 8×10^5 cells per mL, and incubated with appropriate concentrations of the compounds to be tested. Two days later, XTT/PMS was added to test plates and the amount of formazan produced was quantified spectrophotometrically at 450/650 nm. The EC50 value was calculated as the concentration of compound that increased the percentage of formazan production in compound-treated, virus-infected cells to 50% of that produced by compound-free, mock-infected cells. The 50% cytotoxic dose (CC50) was calculated as the concentration of compound that decreased the percentage of formazan produced in compound-treated, mock-infected cells to 50% of that produced by compound-free, mock-infected cells. The therapeutic index (TI) was calculated by dividing the CC50 value by the EC50 value.
(§3) All strains of human rhinovirus (HRV) for use in this assay were purchased from American Type Culture Collection (ATCC), except for HRV serotype-14 (produced from the infectious cDNA clone constructed by Dr. Robert Rueckert, Institute for Molecular Virology, University of Wisconsin, Madison, Wis.). HRV stocks were propagated and viral assays were performed in H1-HeLa cells (ATCC). Cells were grown in minimal essential medium with 10% fetal bovine serum, available from Life Technologies (Gaithersburg, Md.).
(§4) The compounds were tested against control compounds WIN 51711, WIN 52084, and WIN 54954 (obtained from Sterling-Winthrop Pharmaceuticals), Pirodavir (obtained from Janssen Pharmaceuticals), and Pleconaril (prepared according to the method described in Diana et al., J. Med. Chem 1995, vol. 38, 1355). […]

A further assay relates to HRV (9). Kind of assay: Antirhinoviral H1-HeLa cell culture assay, HRV serotype 9. Particulars: Human rhinovirus sp., H1-HeLa cells, XTT. In kind it is cell-based, human rhinovirus. As to the method:
as §1, §2, §3, §4

The test system of another assay is HRV (17). Kind of assay: Antirhinoviral H1-HeLa cell culture assay, HRV serotype 17. In kind it is cell-based, human rhinovirus. Conditions: Human rhinovirus sp., H1-HeLa cells, XTT. As to the method: as §1, §2, §3, §4
Assay [1] deals with Coxsackievirus type B3 (CVB-3). As to the kind of experiment: Anticoxsackieviral cell culture assay, CVB-3. The assay is classed as cell-based. Conditions: 24 h, Strain CVB-3, H1-HeLa cells, one day, XTT, read-out: EC50. As to the method: Coxsackievirus types A-21 (CAV-21) and B3 (CVB-3) were purchased from American Type Culture Collection (ATCC, Rockville, Md.). Virus stocks were propagated and antiviral assays were performed in H1-HeLa cells (ATCC). Cells were grown in minimal essential medium with 10% fetal bovine serum (Life Technologies, Gaithersburg, Md.).
The ability of compounds to protect cells against either CAV-21 or CVB-3 infection was measured by the XTT dye reduction method. This method is described in Weislow et al., J. Natl. Cancer Inst. 1989, vol. 81, 577-586. H1-HeLa cells were infected with CAV-21 or CVB-3 at a multiplicity of infection (m.o.i.) of 0.025 or 0.075, respectively, or mock-infected with medium only. H1-HeLa cells were plated at 4×10^4 cells per well in a 96-well plate and incubated with appropriate concentrations of the test compound. One day (CVB-3) or two days (CAV-21) later, XTT/PMS was added to test plates and the amount of formazan produced was quantified spectrophotometrically at 450/650 nm. The EC50 was calculated as the concentration of compound that increased the formazan production in compound-treated, virus-infected cells to 50% of that produced by compound-free, uninfected cells. The 50% cytotoxic dose (CC50) was calculated as the concentration of compound that decreased formazan production in compound-treated, uninfected cells to 50% of that produced in compound-free, uninfected cells. The therapeutic index TI) was calculated by dividing the CC50 by the EC50.
The compounds were tested against control compounds WIN 54954 (obtained from Sterling-Winthrop Pharmaceuticals), Pirodavir (obtained from Janssen Pharmaceuticals), and Pleconaril (prepared according to Diana et al., J. Med. Chem. 1995, 38, 1355).

Another assay relates to HRV (3). Kind of assay: Antirhinoviral H1-HeLa cell culture assay, HRV serotype 3. Conditions: Human rhinovirus sp., H1-HeLa, H1-HeLa cells, XTT. In kind it is cell-based, human rhinovirus. As to the method: as §1, §2, §3, §4
Assay [2] deals with T1, rhinovirus 3C protease from HRV serotype-14 (Human rhinovirus 14, UniProt P03303).
T1 construct: Recombinant rhinovirus 3C proteases; made in house
As to the kind of experiment: Inhibition of rhinovirus 3C protease (FRET assay), serotype 14. Conditions: read-out: Protease Inhibition kobs/[I], HRV serotype-14 3C protease; progress curves in enzyme start experiments. In kind it is biochemical. The method in brief:
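Recombinant 3C protease (50-100 nM) with ~1 μM DABCYL-GRAVFQGPVG-EDANS FRET substrate in 50 mM Tris pH 7.6, 1 mM EDTA, 2% DMSO. Cleavage read as increase in EDANS fluorescence. kobs/[I] derived from progress curves of enzyme-initiated reactions.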

T1 sequence (P03303 1538-1719): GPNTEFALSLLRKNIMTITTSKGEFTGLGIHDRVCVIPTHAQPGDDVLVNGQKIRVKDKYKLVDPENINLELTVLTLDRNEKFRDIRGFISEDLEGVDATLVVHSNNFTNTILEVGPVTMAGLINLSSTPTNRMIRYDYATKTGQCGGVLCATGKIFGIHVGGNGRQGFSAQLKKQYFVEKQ

Consider `CCOC(=O)/C=C/[C@H](C[C@@H]1CCNC1=O)NC(=O)[C@@H](CC(=O)[C@@H](NC(=O)c1cc(C)on1)C(C)C)Cc1ccc(F)cc1` [Compound B-2, Ethyl-3-{(5′-Methylisoxazole-3′-carbonyl)-L-ValΨ(COCH2)-L-(4-F-Phe)-L-((S)-Pyrrol-Ala)}-E-Propenoate], for which the concentration giving a half-maximal response (EC50) – broadly, the concentration that produces a half-maximal response – came out at 9 nM in the assay on HRV (89); 10 nM with HRV (13); 6 nM in the assay with HRV (9); 10 nM in the assay with HRV (17); 180 nM in assay [1]; 20 nM with HRV (3). For the same compound, the kinact/KI in assay [2] came out at 1.09e+06 M⁻¹ s⁻¹.
